{
  "source": "patent US20260235593A1",
  "about": "“FRET BIOSENSOR RECOMBINANT PROTEINS” (The Regents of the University of California, priority 2023, published 2026)",
  "type_in_all_cases": "cell-based",
  "key": {"[1]": {"system": "ERK", "assay": "Multiplexed biosensor imaging in HEK293T cells: ERK activity (yellow/far-red HaloTag-EKAR)", "settings": "HEK293T cells co-expressing yellow/far-red HaloTag-EKAR and red/far-red HaloTag-AKAR; 100 ng/mL hEGF", "description": "(§1) Cell culture and transfection HeLa and HEK293T cells were cultured in Dulbecco's modified Eagle medium (DMEM; Gibco) containing glucose (1 g/L) and supplemented with 10% (v/v) fetal bovine serum (Sigma-Aldrich) and 1% (v/v) penicillin-streptomycin (Pen-Strep; Sigma-Aldrich). NIH3T3 cells were cultured in DMEM (Gibco) containing glucose (1 g/L) and supplemented with 10% (v/v) fetal calf serum and 1% (v/v) Pen-Strep (Sigma-Aldrich). All cells were maintained in a humidified incubator at 37° C. with a 5% CO2 atmosphere. Before transfection, cells were plated onto sterile quartered 35-mm glass-bottomed dishes and grown to 50 to 70% confluence. Cells were then transfected using Lipofectamine 2000 (Invitrogen, HeLa) or PolyJet (SignaGen Laboratories, HEK293T and NIH3T3) and grown an additional 48 hours (HeLa, HEK293T) before imaging. NIH3T3 cells were changed to serum-free DMEM immediately before transfection, medium was changed to complete medium after 6 h. NIH3T3 cells were then serum-starved for 24 hours before imaging. HaloTag labeling was performed 24 h before imaging using synthetic fluorophores (Fluorophore-CA 500 nM, 24 h, 37° C.) in the respective medium. Synthetic fluorophores were kindly provided by Luke Lavis (Janelia Research Campus, JF669-CA, JFX646-CA and JF635) or Kai Johnsson (Max Planck Institute for Medical Research (Germany) and EPFL (Switzerland), NGD-CA). […]"}, "[2]": {"target": "T1, PKA (Homo sapiens, UniProt P17612)", "T1 construct": "endogenous in cells; host or cells: HEK293T; only the biosensors are transfected", "assay": "Multiplexed biosensor imaging in HEK293T cells: PKA activity (red/far-red HaloTag-AKAR)", "settings": "HEK293T cells co-expressing yellow/far-red HaloTag-EKAR and red/far-red HaloTag-AKAR; 100 ng/mL hEGF; Fsk and 100 μM IBMX together; M H89", "description": "as §1"}, "[3]": {"system": "protein kinase A (PKA)", "assay": "FRET-based AKAR imaging of PKA activity in HeLa cells upon Fsk/IBMX stimulation", "excerpt": "In order to generate KARs that are both bright and photostable, we replaced one of the FPs in the prototypic FRET-based A kinase activity reporter AKAR4 with the self-labeling protein tag HaloTag, which can be flexibly labeled with synthetic fluorophores in different spectral regions. Here, we used a specific green-yellow HaloTag fluorophore (NGD, Table 1)^[12]. To identify the best FRET acceptor for HaloTag^(NGD), we selected a panel of 12 different RFPs with different excitation and emission properties. Given that the FRET efficiency depends not only on the distance between the donor and the acceptor fluorophore, but also on their relative orientation[^13], we tested two different domain orientations (HaloTag-RFP or RFP-HaloTag) and two different linker lengths (flexible linker with 14 amino acids or EV linker with 116 amino acids^[14], FIG. 1A). […] The 48 biosensors were transfected into HeLa cells, the HaloTag labeled with NGD, and the cells stimulated with 50 i.iM forskolin (Fsk) and 100 i.iM 3-isobutyl-1-methylxanthine (IBMX, FIG. 1B). […] We used NGD to label cpHaloTag and measured their response upon Fsk/IBMX stimulation. […] We overexpressed the reporters in HeLa cells and monitored changes in PKA activity after stimulation with 50 tM Fsk and 100 tM IBMX. […] We additionally quantified the on and off kinetics of the biosensor. […]"}},
  "data": [
    {"smiles": "O=C(Nc1ccc2[nH]nc(-c3ccncc3)c2c1)[C@@H]1CCN(CC(=O)N2CCN(c3ccc(-c4ncccn4)cc3)CC2)C1", "note": "[SCH772984]", "values": [
      {"measurement": "ERK activity", "setting": "[1]", "result": "only decreased ERK activity"}
    ]},
    {"smiles": "CC(C)Cn1c(=O)n(C)c(=O)c2[nH]cnc21", "note": "[IBMX, 3-isobutyl-1-methylxanthine]", "values": [
      {"measurement": "PKA activity", "setting": "[2]", "result": "rapid increase in PKA activity"}
    ]},
    {"smiles": "O=S(=O)(NCCNC/C=C/c1ccc(Br)cc1)c1cccc2cnccc12", "note": "[H89]", "values": [
      {"measurement": "FRET/yellow emission ratio after addition of H89", "setting": "[3]; HeLa cells expressing RFP-HaloTag^(NGD) AKARs, H89 added after 8 minutes of Fsk/IBMX stimulation", "result": "FRET/yellow emission ratio of most biosensors decreased"},
      {"measurement": "normalized FRET/donor ratio after addition of H89", "setting": "[3]; HeLa cells expressing YFP-HaloTag^(JF669) AKARs, after 50 μM Fsk and 100 μM IBMX", "result": "reversible"},
      {"measurement": "PKA activity", "setting": "[2]", "result": "decrease in PKA activity"}
    ]}
  ]
}
